Laboratory results: article PMC6409085, “Three odorant-binding proteins are involved in the behavioral response of Sogatella furcifera to rice plant volatiles” (PeerJ, 2019)
Values joined by “and” are separate entries in the source; they are usually repeats but may differ in a detail not shown here. Equal entries are not always repeated.

What was measured:
Assay in all cases: biochemical
Assay type in all cases: binding
SfurOBP1 = SfurOBP1 (Sogatella furcifera, UniProt V5T8N5); details: for Fluorescence competitive binding assay, fluorescence intensity: OBP1, three replicate columns
In short: (§1)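 First, 2.0 µM protein in 50 mM Tris-HCl (pH 7.4) was titrated with 1-NPN to obtain K1-NPN. Then odorants (2–20 µM final) competed against 2.0 µM 1-NPN, with fluorescence (ex 337 nm) recorded after 2 min. Ki was computed from IC50 via Ki = IC50/(1 + [1-NPN]/K1-NPN).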

SfurOBP11 = SfurOBP11 (Sogatella furcifera, UniProt V5T6E3)
In short: as §1

SfurOBP2 = SfurOBP2 (Sogatella furcifera, UniProt V5T759)
In short: as §1

SfurOBP3 = SfurOBP3 (Sogatella furcifera, UniProt V5T818); details: for Fluorescence competitive binding assay, fluorescence intensity: OBP3, three replicate columns
In short: as §1

Sequence of SfurOBP11 (V5T6E3 entry or part of it): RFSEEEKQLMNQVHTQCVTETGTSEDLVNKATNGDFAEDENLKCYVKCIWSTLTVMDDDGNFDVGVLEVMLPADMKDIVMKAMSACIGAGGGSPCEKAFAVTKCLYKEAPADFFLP
Sequence of SfurOBP1 (V5T8N5 entry or part of it): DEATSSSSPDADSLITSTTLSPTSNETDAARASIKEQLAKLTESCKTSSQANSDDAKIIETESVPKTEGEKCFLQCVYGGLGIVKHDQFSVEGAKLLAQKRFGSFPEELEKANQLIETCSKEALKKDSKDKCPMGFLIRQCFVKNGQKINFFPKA
Sequence of SfurOBP2 (V5T759 entry or part of it): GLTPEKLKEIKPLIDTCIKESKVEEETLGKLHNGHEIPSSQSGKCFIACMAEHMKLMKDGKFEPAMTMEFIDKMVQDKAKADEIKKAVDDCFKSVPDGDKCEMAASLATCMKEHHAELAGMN
Sequence of SfurOBP3 (V5T818 entry or part of it): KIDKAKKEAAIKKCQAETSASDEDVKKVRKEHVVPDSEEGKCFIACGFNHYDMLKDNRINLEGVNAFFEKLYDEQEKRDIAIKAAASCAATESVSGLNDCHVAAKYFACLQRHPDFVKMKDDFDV

CCCCCCCCCCCCCCCCCC [n-octadecane]
Fluorescence competitive binding assay, fluorescence intensity (SfurOBP1; ligand concentration 2 (μM)): 9199 and 7453 and 7122 | Fluorescence competitive binding assay, fluorescence intensity (SfurOBP1; ligand concentration 4 (μM)): 8077 and 8108 and 9442 | Fluorescence competitive binding assay, fluorescence intensity (SfurOBP1; ligand concentration 6 (μM)): 8157 and 9511 and 12800 | Fluorescence competitive binding assay, fluorescence intensity (SfurOBP1; ligand concentration 8 (μM)): 8086 and 8235 and 10013 | Fluorescence competitive binding assay, fluorescence intensity (SfurOBP1; ligand concentration 10 (μM)): 9302 and 9657 and 9738 | Fluorescence competitive binding assay, fluorescence intensity (SfurOBP1; ligand concentration 12 (μM)): 8567 and 10513 and 8676 | Fluorescence competitive binding assay, fluorescence intensity (SfurOBP1; ligand concentration 14 (μM)): 10345 and 9766 and 9261 | Fluorescence competitive binding assay, fluorescence intensity (SfurOBP1; ligand concentration 16 (μM)): 9156 and 9816 and 8326 | Fluorescence competitive binding assay, fluorescence intensity (SfurOBP1; ligand concentration 18 (μM)): 11251 and 11486 and 11859 | Fluorescence competitive binding assay, fluorescence intensity (SfurOBP1; ligand concentration 20 (μM)): 12749 and 11193 and 9024 | IC50 (SfurOBP1; SfurOBP1, protein and 1-NPN both 2.0 µM, competitor 2-20 µM, read-out: IC50): > 20 µM | IC50 (SfurOBP11; SfurOBP11, protein and 1-NPN both 2.0 µM, competitor 2-20 µM, read-out: IC50): > 20 µM | Fluorescence intensity, fluorescence competitive binding assay, OBP11 (SfurOBP11; ligand concentration 2, replicate 1): 31124 | Fluorescence intensity, fluorescence competitive binding assay, OBP11 (SfurOBP11; ligand concentration 2, replicate 2): 31165 | Fluorescence intensity, fluorescence competitive binding assay, OBP11 (SfurOBP11; ligand concentration 2, replicate 3): 31082 | Fluorescence intensity, fluorescence competitive binding assay, OBP11 (SfurOBP11; ligand concentration 4, replicate 1): 31010 | Fluorescence intensity, fluorescence competitive binding assay, OBP11 (SfurOBP11; ligand concentration 4, replicate 2): 31130 | Fluorescence intensity, fluorescence competitive binding assay, OBP11 (SfurOBP11; ligand concentration 4, replicate 3): 30899 | Fluorescence intensity, fluorescence competitive binding assay, OBP11 (SfurOBP11; ligand concentration 6, replicate 1): 26414 | Fluorescence intensity, fluorescence competitive binding assay, OBP11 (SfurOBP11; ligand concentration 6, replicate 2): 32905 | Fluorescence intensity, fluorescence competitive binding assay, OBP11 (SfurOBP11; ligand concentration 6, replicate 3): 29894 | Fluorescence intensity, fluorescence competitive binding assay, OBP11 (SfurOBP11; ligand concentration 8, replicate 1): 27729 | Fluorescence intensity, fluorescence competitive binding assay, OBP11 (SfurOBP11; ligand concentration 8, replicate 2): 29971 | Fluorescence intensity, fluorescence competitive binding assay, OBP11 (SfurOBP11; ligand concentration 8, replicate 3): 31279 | Fluorescence intensity, fluorescence competitive binding assay, OBP11 (SfurOBP11; ligand concentration 10, replicate 1): 29221 | Fluorescence intensity, fluorescence competitive binding assay, OBP11 (SfurOBP11; ligand concentration 10, replicate 2): 29436 | Fluorescence intensity, fluorescence competitive binding assay, OBP11 (SfurOBP11; ligand concentration 10, replicate 3): 31039 | Fluorescence intensity, fluorescence competitive binding assay, OBP11 (SfurOBP11; ligand concentration 12, replicate 1): 26981 | Fluorescence intensity, fluorescence competitive binding assay, OBP11 (SfurOBP11; ligand concentration 12, replicate 2): 32241 | Fluorescence intensity, fluorescence competitive binding assay, OBP11 (SfurOBP11; ligand concentration 12, replicate 3): 28868 | Fluorescence intensity, fluorescence competitive binding assay, OBP11 (SfurOBP11; ligand concentration 14, replicate 1): 27521 | Fluorescence intensity, fluorescence competitive binding assay, OBP11 (SfurOBP11; ligand concentration 14, replicate 2): 30203 | Fluorescence intensity, fluorescence competitive binding assay, OBP11 (SfurOBP11; ligand concentration 14, replicate 3): 30415 | Fluorescence intensity, fluorescence competitive binding assay, OBP11 (SfurOBP11; ligand concentration 16, replicate 1): 28709 | Fluorescence intensity, fluorescence competitive binding assay, OBP11 (SfurOBP11; ligand concentration 16, replicate 2): 28254 | Fluorescence intensity, fluorescence competitive binding assay, OBP11 (SfurOBP11; ligand concentration 16, replicate 3): 29164 | Fluorescence intensity, fluorescence competitive binding assay, OBP11 (SfurOBP11; ligand concentration 18, replicate 1): 29699 | Fluorescence intensity, fluorescence competitive binding assay, OBP11 (SfurOBP11; ligand concentration 18, replicate 2): 28164 | Fluorescence intensity, fluorescence competitive binding assay, OBP11 (SfurOBP11; ligand concentration 18, replicate 3): 26628 | Fluorescence intensity, fluorescence competitive binding assay, OBP11 (SfurOBP11; ligand concentration 20, replicate 1): 26046 | Fluorescence intensity, fluorescence competitive binding assay, OBP11 (SfurOBP11; ligand concentration 20, replicate 2): 24149 | Fluorescence intensity, fluorescence competitive binding assay, OBP11 (SfurOBP11; ligand concentration 20, replicate 3): 23426 | IC50 (SfurOBP2; SfurOBP2, protein and 1-NPN both 2.0 µM, competitor 2-20 µM, read-out: IC50): > 20 µM | Fluorescence competitive binding assay, OBP2 (raw fluorescence reading) (SfurOBP2; ligand concentration 2 (unit not given), replicate column 1 of 3): 22088 | Fluorescence competitive binding assay, OBP2 (raw fluorescence reading) (SfurOBP2; ligand concentration 2 (unit not given), replicate column 2 of 3): 18683 | Fluorescence competitive binding assay, OBP2 (raw fluorescence reading) (SfurOBP2; ligand concentration 2 (unit not given), replicate column 3 of 3): 19796 | Fluorescence competitive binding assay, OBP2 (raw fluorescence reading) (SfurOBP2; ligand concentration 4 (unit not given), replicate column 1 of 3): 22227 | Fluorescence competitive binding assay, OBP2 (raw fluorescence reading) (SfurOBP2; ligand concentration 4 (unit not given), replicate column 2 of 3): 21034 | Fluorescence competitive binding assay, OBP2 (raw fluorescence reading) (SfurOBP2; ligand concentration 4 (unit not given), replicate column 3 of 3): 22529 | Fluorescence competitive binding assay, OBP2 (raw fluorescence reading) (SfurOBP2; ligand concentration 6 (unit not given), replicate column 1 of 3): 22620 | Fluorescence competitive binding assay, OBP2 (raw fluorescence reading) (SfurOBP2; ligand concentration 6 (unit not given), replicate column 2 of 3): 20809 | Fluorescence competitive binding assay, OBP2 (raw fluorescence reading) (SfurOBP2; ligand concentration 6 (unit not given), replicate column 3 of 3): 24859 | Fluorescence competitive binding assay, OBP2 (raw fluorescence reading) (SfurOBP2; ligand concentration 8 (unit not given), replicate column 1 of 3): 22235 | Fluorescence competitive binding assay, OBP2 (raw fluorescence reading) (SfurOBP2; ligand concentration 8 (unit not given), replicate column 2 of 3): 21135 | Fluorescence competitive binding assay, OBP2 (raw fluorescence reading) (SfurOBP2; ligand concentration 8 (unit not given), replicate column 3 of 3): 22654 | Fluorescence competitive binding assay, OBP2 (raw fluorescence reading) (SfurOBP2; ligand concentration 10 (unit not given), replicate column 1 of 3): 23550 | Fluorescence competitive binding assay, OBP2 (raw fluorescence reading) (SfurOBP2; ligand concentration 10 (unit not given), replicate column 2 of 3): 22474 | Fluorescence competitive binding assay, OBP2 (raw fluorescence reading) (SfurOBP2; ligand concentration 10 (unit not given), replicate column 3 of 3): 20461 | Fluorescence competitive binding assay, OBP2 (raw fluorescence reading) (SfurOBP2; ligand concentration 12 (unit not given), replicate column 1 of 3): 24276 | Fluorescence competitive binding assay, OBP2 (raw fluorescence reading) (SfurOBP2; ligand concentration 12 (unit not given), replicate column 2 of 3): 21111 | Fluorescence competitive binding assay, OBP2 (raw fluorescence reading) (SfurOBP2; ligand concentration 12 (unit not given), replicate column 3 of 3): 21373 | Fluorescence competitive binding assay, OBP2 (raw fluorescence reading) (SfurOBP2; ligand concentration 14 (unit not given), replicate column 1 of 3): 23028 | Fluorescence competitive binding assay, OBP2 (raw fluorescence reading) (SfurOBP2; ligand concentration 14 (unit not given), replicate column 2 of 3): 21327 | Fluorescence competitive binding assay, OBP2 (raw fluorescence reading) (SfurOBP2; ligand concentration 14 (unit not given), replicate column 3 of 3): 21239 | Fluorescence competitive binding assay, OBP2 (raw fluorescence reading) (SfurOBP2; ligand concentration 16 (unit not given), replicate column 1 of 3): 18660 | Fluorescence competitive binding assay, OBP2 (raw fluorescence reading) (SfurOBP2; ligand concentration 16 (unit not given), replicate column 2 of 3): 19708 | Fluorescence competitive binding assay, OBP2 (raw fluorescence reading) (SfurOBP2; ligand concentration 16 (unit not given), replicate column 3 of 3): 19350 | Fluorescence competitive binding assay, OBP2 (raw fluorescence reading) (SfurOBP2; ligand concentration 18 (unit not given), replicate column 1 of 3): 24040 | Fluorescence competitive binding assay, OBP2 (raw fluorescence reading) (SfurOBP2; ligand concentration 18 (unit not given), replicate column 2 of 3): 25474 | Fluorescence competitive binding assay, OBP2 (raw fluorescence reading) (SfurOBP2; ligand concentration 18 (unit not given), replicate column 3 of 3): 26650 | Fluorescence competitive binding assay, OBP2 (raw fluorescence reading) (SfurOBP2; ligand concentration 20 (unit not given), replicate column 1 of 3): 24631 | Fluorescence competitive binding assay, OBP2 (raw fluorescence reading) (SfurOBP2; ligand concentration 20 (unit not given), replicate column 2 of 3): 21130 | Fluorescence competitive binding assay, OBP2 (raw fluorescence reading) (SfurOBP2; ligand concentration 20 (unit not given), replicate column 3 of 3): 21384 | Fluorescence competitive binding assay, fluorescence intensity (SfurOBP3; ligand concentration 2): 44756 and 46756 and 45756 | Fluorescence competitive binding assay, fluorescence intensity (SfurOBP3; ligand concentration 4): 44765 and 44970 and 45189 | Fluorescence competitive binding assay, fluorescence intensity (SfurOBP3; ligand concentration 6): 56655 and 51780 and 54218 | Fluorescence competitive binding assay, fluorescence intensity (SfurOBP3; ligand concentration 8): 56206 and 55200 and 54212 | Fluorescence competitive binding assay, fluorescence intensity (SfurOBP3; ligand concentration 10): 105189 and 108079 and 109909 | Fluorescence competitive binding assay, fluorescence intensity (SfurOBP3; ligand concentration 12): 109051 and 110510 and 104814 | Fluorescence competitive binding assay, fluorescence intensity (SfurOBP3; ligand concentration 14): 104242 and 103301 and 109995 | Fluorescence competitive binding assay, fluorescence intensity (SfurOBP3; ligand concentration 16): 96286 and 114978 and 85581 | Fluorescence competitive binding assay, fluorescence intensity (SfurOBP3; ligand concentration 18): 113407 and 123942 and 62401 | Fluorescence competitive binding assay, fluorescence intensity (SfurOBP3; ligand concentration 20): 54560 and 56227 and 56504 | IC50 (SfurOBP3; SfurOBP3, protein and 1-NPN both 2.0 µM, competitor 2-20 µM, read-out: IC50): > 20 µM
